The text below walks through data of patent US20050209278A1, “Piperidinyl- and piperazinyl-sulfonylmethyl hydroxamic acids and their use as protease inhibitors” (priority 2002, published 2005).

In one assay the target is T1, MMP-14 (Homo sapiens, UniProt P50281).
T1 construct: The catalytic domain enzyme was expressed in E. coli inclusion bodies, solubilized in urea; made in house
Kind of assay: In vitro MMP inhibition, IC50 determination (fluorogenic substrate I). In kind it is biochemical. Particulars: value in parentheses; read-out: MMP-14 (IC-50).
Turning to `CCCCOc1ccc(N2CCN(S(=O)(=O)C3(C(=O)NO)CCN(C(=O)CCC)CC3)CC2)cc1` [Example 290], the IC50 was found to be 3.8 µM.

The same assay, now with this note: value in parenthesis; read-out: MMP-14 (IC-50).
Regarding `CCOCCCc1ccc(N2CCN(S(=O)(=O)C3(C(=O)NO)CCN(CCOC)CC3)CC2)cc1` [Example 179], the IC50 worked out at 3.62 µM. The same measure, in the same setting: to `COCCCc1ccc(N2CCN(S(=O)(=O)C3(C(=O)NO)CCN(CCOC)CC3)CC2)cc1` [Example 180] belongs 5.56 µM; to `COCCN1CCC(C(=O)NO)(S(=O)(=O)N2CCN(c3ccc(CC4CCCCC4)cc3)CC2)CC1` [Example 181], greater than 10 µM; to `COCCN1CCC(C(=O)NO)(S(=O)(=O)N2CCN(c3ccc(CCC4CCCC4)cc3)CC2)CC1` [Example 182], 7.85 µM.

Take `COCCN1CCC(C(=O)NO)(S(=O)(=O)N2CCN(c3ccc(CC4CCC4)cc3)CC2)CC1` [Example 183]: the IC50 was 2.04 µM.

For `CCOc1ccc(N2CCN(S(=O)(=O)C3(C(=O)NO)CCN(CCOC)CC3)CC2)cc1F` [Example 184], the IC50 turned out to be 2.4 µM. The same measure, in the same setting: as for `CCCOc1ccc(N2CCN(S(=O)(=O)C3(C(=O)NO)CCN(CCOC)CC3)CC2)cc1F` [Example 185], the figure is greater than 10 µM; as for `COCCN1CCC(C(=O)NO)(S(=O)(=O)N2CCN(c3ccc(C#N)cc3)CC2)CC1` [Example 186], 7.48 µM; as for `CCc1cnc(N2CCN(S(=O)(=O)C3(C(=O)NO)CCN(CCOC)CC3)CC2)nc1` [Example 187], greater than 10 µM. Still for that read-out and setting: as for `CCC(CC)Cc1ccc(N2CCN(S(=O)(=O)C3(C(=O)NO)CCN(CCOC)CC3)CC2)cc1` [Example 188], the figure is greater than 10 µM.
